Laboratory results reported in patent US5204311A, “Ethanediimidic acid bis[(arylalkylidene)hydrazide] color-formers” (Minnesota Mining and Manufacturing Company, priority 1991, dated 1993).

Columns and labels:
[1] = Volatility: transfer from simulated donor sheet to receptor sheet; assay type: physicochemical; conditions: 71 ° C. overnight
Description: The method utilized in the experiments to both define and evaluate the level of volatility was as follows. A single sheet piece of Grade #10 (20×12 cm) cheesecloth (AF & F., Item No. 588033, American Fiber and Finishing, Inc., Burlington, Mass.) was placed between a simulated donor sheet and a receptor sheet of a carbonless paper construction. The simulated donor sheet comprised a sheet of paper saturated with color-former of structure I, which was used to simulate a CB sheet with ruptured capsules. Pressure was then applied for 24 hours by placing 9 pounds of paper on top of the sheets, to simulate storage conditions of the paper packages. The formation of color on the receptor sheet, due to transfer of volatile color-former thereto, was used as an indication that the particular color-former was less than optimally desirable for carbonless paper constructions, i.e., was volatile. A compound was considered generally to be nonvolatile, within the meaning of the term as used herein to define the present invention and thus to define color-formers most acceptable for use in carbonless image transfer arrangements, if no color was formed after the simulated test was run for about 24 hours at 25° C. In some instances, if no color was formed after storage at room temperature (25° C.), successively higher temperatures were used, as for example 49° C., 60° C., and 71° C. […]

[2] = Color (Hunter coordinates) of Ni complex, swabbed on Ni-coated receptor (CF) sheet; assay type: physicochemical; set-up: key to Hunter coordinate a / Hunter Coordinates a: Hunter a: +a red, -a green; key to Hunter coordinate b / Hunter Coordinates b: Hunter b: +b yellow, -b blue
Procedure: In general, the colors of the complexes, as listed in Table 2 and Experiments 4, 6, and 7 below, were determined by preparing a 1% solution of the color-former or mixture of color-formers in an appropriate solvent. Unless otherwise indicated, the solvent was composed of a mixture of tributyl phosphate (26.5%), diethyl phthalate (17.6%), and cyclohexane (55.9%). The images were formed by applying two stripes of the solution to a substrate coated with a Ni^2+ coated receptor sheet using a cotton tipped applicator swab. Rapid and complete development of the image was achieved by passing the sheet through a hot shoe adjusted to 102° C., making a revolution every 10 seconds. The visually observed colors were measured and recorded.
One method of color measurement is to determine the color's position in color space. One color space system is the Hunter System; see F. W. Billmeyer, Jr., and M. Saltzman, Principles of Color Technology; John Wiley & Sons; New York, N.Y.; Ch. 2 & 3, 1981. In this system three mutually perpendicular axes (L, a, and b) are needed to define a color. "L" (+z axis) represents the lightness or darkness of the image; "a" (x axis) represents the amount of red or green (+a is red, -a is green); and "b" (y axis) represents the amount of yellow or blue (+b is yellow, -b is blue). By measuring a material's L, a, and b values, the color of one sample can be compared with that of other samples. Another value used in the Hunter System is Chroma (C). Chroma is defined by the equation [C=(a^2 +b^2)^1/2 ] and represents the distance of the image coordinates from the origin. The greater the Chroma, the more intense the image. Chroma is used to compare images cf the same hue. Because the color of a sample is also dependent upon the color temperature of the illuminating source, the angle at which the sample is illuminated, the angle at which the illumination is reflected, and the angle of the retina illuminated, these all need to be specified. Many instruments have been developed to record these values. One such instrument is the HunterLab LabScan II. This instrument is capable of automatically determining the L, a, and b values for a given sample, and was used for the following examples.
The L, a, and b color coordinates of the more uniform stripe were measured for 45°/0° reflectance on a HunterLab LabScan II, secondary observer, using illuminant C. The observed (image) color and the Hunter coordinates for Ni^2+ complexes of the yellow color-formers of this invention are given in Table 2.
A 1% solution of the condensation product in the encapsulation fill mix was swabbed onto a carbonless paper CF sheet (sold by the 3M Co. St. Paul, Minn.) with a cotton swab. The reflectance spectra had Hunter coordinates of: […]

[3] = 1% solution in encapsulation fill mix swabbed onto 3M CF sheet (Experiments 2, 3)
[4] = Ni(II) complex, swab concn. 1%, 45°/0° reflectance, illuminant C (Table 2)

## CC(C)(C)c1cc(C=NN=C(N)C(N)=NN=Cc2cc(C(C)(C)C)cc(C(C)(C)C)c2O)c(O)c(C(C)(C)C)c1 [Compound 1, ethanediimidic acid bis[(3,5-di-t-butylsalicylidene)hydrazide]]
[1]
  volatility: not volatile
[2]; [3]
  Hunter coordinate L: 79.8
  Hunter coordinate a: -2.1
  Hunter coordinate b: 39.3
[2]; 1% solution swabbed (Experiments 2, 3)
  color observed on the CF sheet: yellow
[2]; C=(a^2 +b^2)^1/2, Ni(II) complex, swab concn. 1% (Table 2)
  Chroma: 39.3
[2]; Ni(II) complex, swab concn. 1% (Table 2)
  Image Color: Yellow
[2]; [4]
  Hunter Coordinates L: 79.8
  Hunter Coordinates a: -2.1
  Hunter Coordinates b: 39.3
